Data on 2 compounds can be found in patent US12201632B2, “Levoketoconazole for treatment of congenital adrenal hyperplasia and primary aldosteronism” (Strongbridge Dublin Limited, priority 2018, dated 2025).

Data set [1] relates to ACTH independent hyperplasia cultures. In words: Cortisol production in primary ACTH independent hyperplasia cultures. In kind it is cell-based, human. The settings on record: 3 days; for IC50 inhibition of cortisol production: ACTH independent hyperplasia no. 1, basal condition. On the procedure: (§1) To obtain primary cultures, adrenal specimens (adrenocortical adenomas, adrenal hyperplasias and adrenocortical carcinomas) were collected after adrenalectomy at the department of Surgery, Erasmus University Medical Center, Rotterdam, the Netherlands, between April 2016 and May 2018. The study was conducted under guidelines that have been approved by the Medical Ethics Committee of the Erasmus Medical Center and informed consent was obtained from all patients. Immediately after surgery, specimens were minced into small pieces of 2-3 mm^3, washed in culture medium and centrifuged for 5 minutes at 600 g. The tissue was stored overnight in culture medium at 4° C., where after the tissue was centrifuged again and the supernatant was removed. Fragments were dissociated using 10-25 ml collagenase type 1 (2 mg/ml: Sigma-Aldrich), followed by incubation at 37° C. for up to two hours. Ficoll (GE healthcare) density gradient separation was used once or twice as required in order to separate contaminating red blood cells from the tumor cells. Cell viability and cell amount were counted by trypan blue exclusion. Dissociated cells were plated at a density of 10^5 cells per well. […]
Cortisol concentrations were measured in the supernatant using a chemiluminescence immunoassay system (Immulite 2000XPi; Siemens DPC Inc., Los Angeles, Calif., USA). In addition, we carried out multi-steroid analysis by liquid chromatography/mass spectrometry (LC/MS-MS) to accurately quantify androstenedione, corticosterone, cortisol, 11-deoxycortisol, DHEA, DHEAS, progesterone, 17-hydroxyprogesterone, and testosterone. […] Steroids were quantified with respect to a calibration series, with internal standards. Steroids were quantified on a Xevo TQS LC-MS/MS (Waters Chromatography).
Statistical analysis was performed using Graphpad Prism 6.0 (Graphpad Software, San Diego, CA). […] Effects of both compounds on the steroid profile were measured as absolute change compared to control and compared using the Student's t-test. […]

For data set [2] the following is noted: cited from earlier work.
Data set [3] relates to primary human corticotroph pituitary adenoma cultures. Description: Cell amount in primary corticotroph pituitary adenoma cultures. In kind it is cell-based. As to conditions: corticotroph pituitary adenoma primary culture no. 2, 1 μM, 7 days. On the procedure: as §1
(§2) As a measure of cell number, DNA concentrations were determined using the bisbenzimide fluorescent dye (Hoechst 33258, Sigma Aldrich), as previously described.

Data set [4] relates to primary human adrenocortical carcinoma cultures. In words: Cortisol production in primary adrenocortical carcinoma cultures. In kind it is cell-based. Here is the method:
(§3) To obtain primary cultures, adrenal specimens (adrenocortical adenomas, adrenal hyperplasias and adrenocortical carcinomas) were collected after adrenalectomy at the department of Surgery, Erasmus University Medical Center, Rotterdam, the Netherlands, between April 2016 and May 2018. The study was conducted under guidelines that have been approved by the Medical Ethics Committee of the Erasmus Medical Center and informed consent was obtained from all patients. Immediately after surgery, specimens were minced into small pieces of 2-3 mm^3, washed in culture medium and centrifuged for 5 minutes at 600 g. The tissue was stored overnight in culture medium at 4° C., where after the tissue was centrifuged again and the supernatant was removed. Fragments were dissociated using 10-25 ml collagenase type 1 (2 mg/ml: Sigma-Aldrich), followed by incubation at 37° C. for up to two hours. Ficoll (GE healthcare) density gradient separation was used once or twice as required in order to separate contaminating red blood cells from the tumor cells. Cell viability and cell amount were counted by trypan blue exclusion. Dissociated cells were plated at a density of 10^5 cells per well. ACTH-secreting corticotroph pituitary adenoma tissue from patients with Cushing's disease (n=2) was available after transsphenoidal surgery. Single-cell suspensions of the pituitary adenoma tissues were prepared as previously described in detail.
(§4) Owing to a limited number of cells obtained from the specimens, not all experiments were carried out in every primary culture.
(§5) Cortisol concentrations were measured in the supernatant using a chemiluminescence immunoassay system (Immulite 2000XPi; Siemens DPC Inc., Los Angeles, Calif., USA). In addition, we carried out multi-steroid analysis by liquid chromatography/mass spectrometry (LC/MS-MS) to accurately quantify androstenedione, corticosterone, cortisol, 11-deoxycortisol, DHEA, DHEAS, progesterone, 17-hydroxyprogesterone, and testosterone. Concentrations that were tested on the LC/MS-MS were closest to 50% inhibition or maximal inhibition of cortisol as determined by the immunoassay. Steroids were quantified with respect to a calibration series, with internal standards. Steroids were quantified on a Xevo TQS LC-MS/MS (Waters Chromatography).
(§6) Statistical analysis was performed using Graphpad Prism 6.0 (Graphpad Software, San Diego, CA). Non-linear regression curve fitting program was used to calculate the half maximal inhibitory concentrations (IC50) on cortisol production. Effects of both compounds on the steroid profile were measured as absolute change compared to control and compared using the Student's t-test. When assessing differences between effects of both compounds, the percentage change was evaluated and compared in order to correct for differences in the vehicle treated control cells. Values of P<0.05 were considered statistically significant and data are presented as mean SEM.

Data set [5] deals with HAC15 cells. In words: Cell number (DNA) of HAC15 cells. Format: cell-based, Human. The settings on record: HAC15, 1 or 3 days, with or without ACTH. Here is the method:
(§7) Human adrenocortical carcinoma HAC15 and mouse corticotroph AtT20 cells were used, purchased as a kind gift by Dr. W. Rainey, and obtained from Dr. J. Tooze (European Organization for Molecular Biology), respectively. Both cell lines were cultured in 75 cm^2 flasks at 37° C. in a humidified incubator (Greiner Bio-One, Alphen a/d Rijn, the Netherlands) at 5% CO2. Dulbecco's Modified Eagle Medium F12 containing 5% fetal calf serum was used for HAC15, whereas AtT20 cells were cultured in Dulbecco's minimal essential medium (DMEM) supplemented with 10% fetal calf serum. Both mediums were supplemented with L-glutamine (2 mmol/L) and penicillin (10^5 U/L). Short tandem repeat (str) profiling using a Powerplex Kit (Promega, Leiden, the Netherlands) of HAC15 and AtT20 gave results consistent with the ATCC database, confirming the identity of both cell lines. Medium and supplements were obtained from Invitrogen, Breda, the Netherlands. Once a week, cells were harvested with trypsin (0.05%)-EDTA (0.53 mM) and resuspended in culture medium. […]
as §2

Data set [6] relates to primary human corticotroph pituitary adenoma cultures. Description: ACTH secretion corrected for cell number in primary corticotroph pituitary adenoma cultures. As to conditions: both primary pituitary adenoma cultures, 1 μM, 7 days. Format: cell-based. On the procedure: as §1, with “Ficoll (GE healthcare) density gradient separation was used once or twice as required in order to separate contaminating red blood cells from the tumor cells.” left out, “exclusion.” for “exclusion. Dissociated cells were plated at a density of 10^5 cells per well.”
(§8) At the end of the AtT20 and primary pituitary adenoma culture experiments, medium was collected and supplemented with 1% of the protease inhibitor Trasylol to prevent degradation of ACTH. ACTH was measured using a commercially available, nonisotopic automatic chemiluminescence system (DPC Immulite).

The subject of data set [7] is AtT20 cells. Description: ACTH secretion corrected for cell amount in AtT20 cells. Format: cell-based, mouse. On the procedure:
as §7, with “medium. Levoketoconazole (COR-003) and racemic ketoconazole (both from Cortendo AB) were dissolved in absolute ethanol (EtOH), according to manufacturer's instructions, and stored at −20° C. at a stock concentration of […]. At the start of each experiment, both drugs were freshly prepared and diluted in EtOH in the correct concentrations. Synacten (synthetic ACTH, Novartis Pharma A.G.) stock concentration was stored at 4° C. and dissolved in culture medium at the day of use. The final concentrations of ACTH were chosen based on a dose-response curve in HAC15 cells and previously reported studies in the literature. For HAC15, 200,000 and 100,000 cells were plated in 0.5 ml medium in 24 well plates for experiments of 1 and 3 days, respectively.” for “medium.”
as §8

Data set [8] concerns EAS associated adrenal hyperplasia cultures. Description: Cortisol production in primary EAS associated adrenal hyperplasia cultures. In kind it is cell-based, human. Here is the method: as §3, §4, §5, §6

Like-named read-outs stand apart in the source and are kept apart here.

For the compound `CC(=O)N1CCN(c2ccc(OCC3COC(Cn4ccnc4)(c4ccc(Cl)cc4Cl)O3)cc2)CC1` (racemic) [racemic ketoconazole, Ketoconazole], the “IC50 inhibition of cortisol production” value in data set [1] was “Ambiguous”. In addition, the half-inhibitory concentration (IC50) – broadly, the concentration at which inhibition is half-maximal – in data set [1] (Homo sapiens, 72 h, ACTH independent hyperplasia no. 2, ACTH (85 μM) stimulated condition, read-out: IC50 inhibition of cortisol production) turned out to be 1390 nM; in data set [4] (Homo sapiens, 72 h, ACC no. 2, basal condition, 3 days, read-out: IC50 inhibition of cortisol production), 76.3 nM; in data set [4] (Homo sapiens, 72 h, ACC no. 3, basal condition, 3 days, read-out: IC50 inhibition of cortisol production), 67.6 nM; in data set [8] (Homo sapiens, 72 h, EAS associated hyperplasia no. 1, ACTH (85 μM) stimulated condition, 3 days, read-out: IC50 inhibition of cortisol production) it was 106 nM; in data set [8] (Homo sapiens, 72 h, EAS associated hyperplasia no. 1, basal condition, 3 days, read-out: IC50 inhibition of cortisol production), 26.2 nM; in data set [8] (Homo sapiens, 72 h, EAS associated hyperplasia no. 2, basal condition, 3 days, read-out: IC50 inhibition of cortisol production), 29.6 nM. In data set [2], the “accumulation in a subject's body over repeated dosing” value is reported as “accumulate in a subject's body over repeated dosing”. In addition, the “effect on cell number” value in data set [3] is given as “not observed”. In data set [5], the “effects on cell number” value was “no effects”. Moreover, the “effects on ACTH secretion corrected for cell number” value in data set [6] is “No effects”. In addition, the inhibition (as a rule, how much of the control response was suppressed) at 10 µM in data set [7] (Mus musculus, 168 h, AtT20, 7 days of treatment with 10 μM, corrected for cell amount, read-out: Maximal inhibition of ACTH secretion) came out at 34%.
For the compound `CC(=O)N1CCN(c2ccc(OC[C@@H]3CO[C@@](Cn4ccnc4)(c4ccc(Cl)cc4Cl)O3)cc2)CC1` (relative stereo) [levoketoconazole, 2S,4R cis-1-acetyl-4-[4-[[2-(2,4-dichlorophenyl)-2-(1H-imidazol-1-ylmethyl)-1,3-dioxolan-4-yl]methoxyl]phenyl]piperazine], the “IC50 inhibition of cortisol production” value in data set [1] is reported as “Ambiguous”. The “accumulation in a subject's body over repeated dosing” value in data set [2] is “significantly less accumulation”. Moreover, the “effect on cell number” value in data set [3] was “significantly inhibited cell number”. Besides, the 50% inhibitory concentration (IC50) in data set [4] (ACC no. 1, basal condition, 3 days, read-out: IC50 inhibition of cortisol production) came to 5.78 nM; in data set [4] (ACC no. 2, basal condition, 3 days, read-out: IC50 inhibition of cortisol production) it was 57.1 nM; in data set [4] (ACC no. 3, ACTH (85 μM) stimulated condition, 3 days, read-out: IC50 inhibition of cortisol production), 32.1 nM; in data set [4] (ACC no. 3, basal condition, 3 days, read-out: IC50 inhibition of cortisol production) it was 73.1 nM; in data set [4] (basal condition, ACC (n=3), read-out: mean IC50 cortisol production), 38.3 nM; in data set [8] (EAS associated hyperplasia no. 1, ACTH (85 μM) stimulated condition, 3 days, read-out: IC50 inhibition of cortisol production) it was 79.9 nM. Besides, the IC50 in data set [8] (EAS associated hyperplasia no. 1, basal condition, 3 days, read-out: IC50 inhibition of cortisol production) came out at 27.7 nM; in data set [8] (EAS associated hyperplasia no. 2, basal condition, 3 days, read-out: IC50 inhibition of cortisol production), 22 nM; in data set [8] (basal condition, EAS associated adrenal hyperplasia (n=2), read-out: mean IC50 cortisol production) it was 25.7 nM. Also, the “effects on cell number” value in data set [5] is on record as “no effects”. Further, the “effects on ACTH secretion corrected for cell number” value in data set [6] is “No effects”. The “Maximal inhibition of ACTH secretion” value in data set [7] (AtT20, 7 days of treatment with 10 μM, corrected for cell amount) is given as 38%. Moreover, in data set [7] (AtT20, after 3 days of treatment), the “ACTH secretion corrected for cell amount” value is listed as “showed inhibition of ACTH secretion”.
